Assay results from patent US20240279214A1, “ALPHA4 BETA7 INEGRIN ANTAGONISTS AND USES THEREOF” (XinThera, Inc., priority 2022, published 2024).
Read-outs that look alike come from different tables or passages of the source.

Assays:
[1] = 13-membered ring
[2] = biological target: T1, a4b7 integrin interaction with MadCAM-1 (Homo sapiens, UniProt P13612+P26010); assay: a4b7 Cell Capture Assay (RPMI8866 cells on MAdCAM-1 Fc coated plates); type: cell-based; conditions: 50% human serum, 1 mM MgCl2, 1 hour incubation, CellTiter-Glo luminescence, read-out: a4B7 cell capture assay RMPI8866-MadCAM EC50
T1 construct: capture of a4b7 integrin expressing cells, RPMI8866; endogenous in cells; host or cells: RPMI8866
T1 sequence (P13612 34-1032): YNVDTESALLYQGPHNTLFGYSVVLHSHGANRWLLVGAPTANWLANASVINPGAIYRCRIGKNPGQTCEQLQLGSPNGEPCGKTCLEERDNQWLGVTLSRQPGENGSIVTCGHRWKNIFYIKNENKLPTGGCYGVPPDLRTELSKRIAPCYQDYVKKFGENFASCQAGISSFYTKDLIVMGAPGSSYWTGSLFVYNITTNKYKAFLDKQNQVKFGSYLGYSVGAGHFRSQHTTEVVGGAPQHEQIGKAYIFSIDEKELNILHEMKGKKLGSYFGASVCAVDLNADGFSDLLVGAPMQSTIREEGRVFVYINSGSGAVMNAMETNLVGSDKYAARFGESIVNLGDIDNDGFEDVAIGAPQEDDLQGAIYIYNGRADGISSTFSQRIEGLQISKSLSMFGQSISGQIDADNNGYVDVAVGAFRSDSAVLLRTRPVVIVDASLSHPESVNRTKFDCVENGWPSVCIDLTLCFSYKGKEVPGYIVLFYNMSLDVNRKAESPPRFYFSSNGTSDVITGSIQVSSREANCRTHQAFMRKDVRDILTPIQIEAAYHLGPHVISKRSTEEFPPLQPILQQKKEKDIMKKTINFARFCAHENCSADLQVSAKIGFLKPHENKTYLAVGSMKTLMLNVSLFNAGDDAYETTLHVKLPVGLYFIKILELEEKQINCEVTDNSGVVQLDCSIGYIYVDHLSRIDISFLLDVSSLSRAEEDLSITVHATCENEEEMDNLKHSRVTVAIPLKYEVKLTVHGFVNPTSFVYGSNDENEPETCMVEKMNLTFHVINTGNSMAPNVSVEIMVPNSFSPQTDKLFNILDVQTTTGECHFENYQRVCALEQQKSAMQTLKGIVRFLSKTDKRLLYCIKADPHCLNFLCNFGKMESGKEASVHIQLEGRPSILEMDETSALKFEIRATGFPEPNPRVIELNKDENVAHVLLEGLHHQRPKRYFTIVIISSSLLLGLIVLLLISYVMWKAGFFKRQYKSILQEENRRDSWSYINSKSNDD
T1 sequence (P26010 20-798): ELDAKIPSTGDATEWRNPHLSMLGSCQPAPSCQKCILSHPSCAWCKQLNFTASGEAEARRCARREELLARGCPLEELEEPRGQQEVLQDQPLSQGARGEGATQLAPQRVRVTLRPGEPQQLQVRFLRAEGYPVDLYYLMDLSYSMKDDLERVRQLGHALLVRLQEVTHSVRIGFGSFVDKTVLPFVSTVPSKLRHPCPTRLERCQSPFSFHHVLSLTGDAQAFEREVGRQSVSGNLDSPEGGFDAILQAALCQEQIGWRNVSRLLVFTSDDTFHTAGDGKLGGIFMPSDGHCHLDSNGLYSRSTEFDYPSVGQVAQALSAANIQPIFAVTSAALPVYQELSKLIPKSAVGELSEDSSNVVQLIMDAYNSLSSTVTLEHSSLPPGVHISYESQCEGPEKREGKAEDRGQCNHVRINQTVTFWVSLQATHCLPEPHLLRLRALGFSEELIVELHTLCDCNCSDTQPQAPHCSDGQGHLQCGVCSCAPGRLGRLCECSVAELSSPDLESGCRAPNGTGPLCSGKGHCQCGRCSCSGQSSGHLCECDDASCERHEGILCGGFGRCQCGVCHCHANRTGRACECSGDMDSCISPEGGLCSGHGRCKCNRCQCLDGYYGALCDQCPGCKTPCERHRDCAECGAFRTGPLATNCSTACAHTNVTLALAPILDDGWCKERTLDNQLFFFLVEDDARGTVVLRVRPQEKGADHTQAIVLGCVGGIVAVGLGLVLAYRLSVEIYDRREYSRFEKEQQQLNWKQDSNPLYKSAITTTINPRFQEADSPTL
Outline: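 RPMI8866 cells (1.0×10^6 cells/mL) in 1 mM MgCl2, 25 mM HEPES, 50% human serum were added to plates coated with human MAdCAM-1–IgG1 Fc (1.0 μg/mL) and exposed to compound (9-point, 0.08–1000 nM, 0.1% DMSO) for 1 h at 37 °C. Bound cells were read by CellTiter-Glo luminescence. IC50 came from 4-parameter fit of normalized % inhibition.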

## CCOC(=O)C[C@@H]1NC(=O)C(n2ccc(C(F)(F)F)cc2=O)c2cc(ccc2F)Oc2cc(OC)cc(C)c2-c2cc(C)c(F)c1c2 (some centres unmarked)
[1]; from CCOC(=O)C[C@H](NC(=O)C(c1cc(Br)ccc1F)n1ccc(C(F)(F)F)cc1=O)c1cc(-c2c(C)cc(OC)cc2O)cc(C)c1F, ether bond, CuI/K2CO3/(1R,2R)-N1,N2-dimethylcyclohexane-1,2-diamine, 1,4-dioxane, 70.0 mM, 100.0 °C, 2.0 h
  ring closure, isolated yield: 67.3%

## CCOC(=O)C[C@@H]1NC(=O)C(n2cc(CCN3CC(F)C3)c(C(F)(F)F)cc2=O)c2cc(ccc2F)Oc2cc(N3CC(OC)C3)cc(C)c2-c2cc(C)c(F)c1c2 (some centres unmarked)
[1]; from CCOC(=O)C[C@H](NC(=O)C(c1cc(Br)ccc1F)n1cc(CCN2CC(F)C2)c(C(F)(F)F)cc1=O)c1cc(-c2c(C)cc(N3CC(OC)C3)cc2O)cc(C)c1F, ether bond, CuI/(1R,2R)-N1,N2-dimethylcyclohexane-1,2-diamine/K2CO3, 1,4-dioxane, 30.0 mM, 100.0 °C, 2.0 h
  ring closure, isolated yield: 59.2%

## CCOC(=O)C[C@@H]1NC(=O)C(n2ccc(C(F)(F)F)c(C3CC3)c2=O)c2cc(ccc2F)Oc2cccc(C)c2-c2cc(C)c(F)c1c2 (stereo in doubt)
[1]; from CCOC(=O)C[C@H](NC(=O)C(c1cc(Br)ccc1F)n1ccc(C(F)(F)F)c(C2CC2)c1=O)c1cc(-c2c(C)cccc2O)cc(C)c1F, ether bond, CuI/K2CO3/(1R,2R)-N1,N2-dimethylcyclohexane-1,2-diamine, dioxane, 45.0 mM, 100.0 °C
  ring closure, isolated yield: 46.7%

## CCOC(=O)C[C@H](NC(=O)C(c1cccc(Br)c1)n1cc(Cl)c(C(F)(F)F)cc1=O)c1cc(-c2c(C)cccc2O)cc(C(F)(F)F)c1F (some centres unmarked)
[1]; the molecule shown is the open-chain precursor, ether bond, CuI/(1R,2R)-N1,N2-dimethylcyclohexane-1,2-diamine/K2CO3, 1,4-dioxane, 23.3 mM, 100.0 °C
  ring closure, isolated yield: 71%

## CCOC(=O)C[C@@H]1NC(=O)C(n2cc(CCN3CC(F)C3)c(C(F)(F)F)cc2=O)c2cccc(c2)Oc2cccc(C(F)(F)F)c2-c2cc1c(F)c(C(F)(F)F)c2 (some centres unmarked)
[1]; from CCOC(=O)C[C@H](NC(=O)C(c1cccc(Br)c1)n1cc(CCN2CC(F)C2)c(C(F)(F)F)cc1=O)c1cc(-c2c(O)cccc2C(F)(F)F)cc(C(F)(F)F)c1F, ether bond, CuI/N1,N2-dimethylcyclohexane-1,2-diamine/K2CO3, dioxane, 14.7 mM, 100.0 °C, 16.0 h
  ring closure, isolated yield: 46.7%

## CCOC(=O)C[C@@H]1NC(=O)C(n2cc(CCN3CC(F)C3)c(C(F)(F)F)cc2=O)c2cc(ccc2F)Oc2cccc(C)c2-c2cc(F)c(F)c1c2 (stereo in doubt)
[1]; from CCOC(=O)C[C@H](NC(=O)C(c1cc(Br)ccc1F)n1cc(CCN2CC(F)C2)c(C(F)(F)F)cc1=O)c1cc(-c2c(C)cccc2O)cc(F)c1F, ether bond, CuI/K2CO3/N1,N2-dimethylcyclohexane-1,2-diamine, 1,4-dioxane, 51.7 mM, 100.0 °C, 16.0 h
  ring closure, isolated yield: 44.4%

## CCOC(=O)C[C@@H]1NC(=O)C(n2cc(CCN(C)C)c(C(F)(F)F)cc2=O)c2cc(ccc2F)Oc2cccc(C)c2-c2cc(C)c(F)c1c2 (stereo in doubt)
[1]; from CCOC(=O)C[C@H](NC(=O)C(c1cc(Br)ccc1F)n1cc(CCN(C)C)c(C(F)(F)F)cc1=O)c1cc(-c2c(C)cccc2O)cc(C)c1F, ether bond, CuI/K2CO3/(1R,2R)-N1,N2-dimethylcyclohexane-1,2-diamine, 1,4-dioxane, 56.0 mM, 100.0 °C, 16.0 h
  ring closure, isolated yield: 70%

## CCOC(=O)C[C@@H]1NC(=O)C(n2cc(CCN(C)C)c(C(F)(F)F)cc2=O)c2cccc(c2)Oc2cccc(C)c2-c2cc(C)c(F)c1c2 (stereo in doubt)
[1]; from CCOC(=O)C[C@H](NC(=O)C(c1cccc(Br)c1)n1cc(CCN(C)C)c(C(F)(F)F)cc1=O)c1cc(-c2c(C)cccc2O)cc(C)c1F, ether bond, CuI/K2CO3/(1R,2R)-N1,N2-dimethylcyclohexane-1,2-diamine, 1,4-dioxane, 66.7 mM, 100.0 °C, 16.0 h
  ring closure, isolated yield: 61.3%

## CCOC(=O)C[C@@H]1NC(=O)C(=O)c2cccc(c2)Cc2cccc(C)c2-c2cc(C)c(F)c1c2
[1]; from CCOC(=O)C[C@H](N)c1cc(-c2c(C)cccc2Cc2cccc(C(=O)C(=O)O)c2)cc(C)c1F, amide bond, TCFH/NMI, MeCN, 139.3 mM, 25.0 °C, 3.0 h
  ring closure, isolated yield: 32.5%

## CCOC(=O)C[C@@H]1NC(=O)C(n2cc(CCN3CC(F)C3)c(C(F)(F)F)cc2=O)c2cc(ccc2C)Oc2cccc(C)c2-c2cc(C)c(F)c1c2 (some centres unmarked)
[1]; from CCOC(=O)C[C@H](NC(=O)C(c1cc(Br)ccc1C)n1cc(CCN2CC(F)C2)c(C(F)(F)F)cc1=O)c1cc(-c2c(C)cccc2O)cc(C)c1F, ether bond, CuI/K2CO3/(1R,2R)-N1,N2-dimethylcyclohexane-1,2-diamine, 1,4-dioxane, 100.0 °C
  ring closure, isolated yield: 88.9%

## CCOC(=O)C[C@@H]1NC(=O)C(n2cc(CCN3CC(F)C3)cc(CC)c2=O)c2cc(ccc2F)Oc2cccc(C)c2-c2cc(C)c(F)c1c2 (stereo in doubt)
[1]; from CCOC(=O)C[C@H](NC(=O)C(c1cc(Br)ccc1F)n1cc(CCN2CC(F)C2)cc(CC)c1=O)c1cc(-c2c(C)cccc2O)cc(C)c1F, ether bond, CuI/(1R,2R)-N,N'-dimethylcyclohexane-1,2-diamine/K2CO3, dioxane, 40.0 mM, 100.0 °C, 16.0 h
  ring closure, isolated yield: 46.5%

## CCOC(=O)C[C@@H]1NC(=O)C(n2ccc(C(F)(F)F)c(CC)c2=O)c2cc(ccc2F)Oc2cccc(C)c2-c2cc(C)c(F)c1c2 (some centres unmarked)
[1]; from CCOC(=O)C[C@H](NC(=O)C(c1cc(Br)ccc1F)n1ccc(C(F)(F)F)c(CC)c1=O)c1cc(-c2c(C)cccc2O)cc(C)c1F, ether bond, CuI/(1R,2R)-N,N'-dimethylcyclohexane-1,2-diamine/K2CO3, 1,4-dioxane, 20.0 mM, 100.0 °C, 16.0 h
  ring closure, isolated yield: 56.1%

## Cc1cc2cc(c1F)[C@H](CC(=O)O)NC(=O)[C@@H](n1cc(CCN3CC(F)C3)c(C(F)(F)F)cc1=O)c1cc(ccc1F)COc1cc(C(F)(F)F)cc(C)c1-2 (relative stereo) [Example 65, [(15R*,18S)-13,20-difluoro-15-{5-[2-(3-fluoroazetidin-1-yl)ethyl]-2-oxo-4-(trifluoromethyl)pyridin-1-yl}-3,21-dimethyl-16-oxo-5-(trifluoromethyl)-8-oxa-17-azatetracyclo[17.3.1.1^{10,14}.0^{2,7}]tetracosa-1(23),2(7),3,5,10,12,14(24),19,21-nonaen-18-yl]acetic acid]
[2]
  EC50: 77 nM

## Cc1cc2cc(c1F)[C@H](CC(=O)O)NC(=O)[C@@H](n1cc(CCN3CC(F)C3)c(C(F)(F)F)cc1=O)c1cc(ccc1F)COc1cc(C#N)cc(C)c1-2 (single isomer, unassigned) [Example 54]
[2]
  EC50: 27 nM

## Cc1cc2cc(c1F)[C@H](CC(=O)O)NC(=O)[C@@H](n1cc(CCN3CC(F)C3)c(C(F)(F)F)cc1=O)c1cc(ccc1F)Oc1cc(C(F)(F)F)cc(C)c1-2 (single isomer, unassigned) [Example 64]
[2]
  EC50: 6.4 nM

## Cc1cc2cc(c1F)[C@H](CC(=O)O)NC(=O)[C@@H](n1cc(CCN3CC(F)C3)c(C(F)(F)F)cc1=O)c1cc(ccc1F)Oc1cc(Cl)cc(C)c1-2 (relative stereo) [Example 55, [(14R*,17S)-5-chloro-12,19-difluoro-14-{5-[2-(3-fluoroazetidin-1-yl)ethyl]-2-oxo-4-(trifluoromethyl)pyridin-1-yl}-3,20-dimethyl-15-oxo-8-oxa-16-azatetracyclo[16.3.1.1^{9,13}.0^{2,7}]tricosa-1(22),2(7),3,5,9,11,13(23),18,20-nonaen-17-yl]acetic acid]
[2]
  EC50: 4 nM

## Cc1cc2c(F)c(c1F)[C@H](CC(=O)O)NC(=O)[C@@H](n1cc(CCN3CC(F)C3)c(C(F)(F)F)cc1=O)c1cc(ccc1F)Oc1cccc(C)c1-2 (single isomer, unassigned) [Example 77]
[2]
  EC50: 15 nM
